These results are taken from a melting point compilation (Tetko et al.; mined from patent text by program, amines drawn as free bases though some values may be those of a salt).

The term melting point denotes the temperature of the solid-liquid transition.

The structures appear in SMILES notation.

For `O=C(OCCO)c1ccc([N+](=O)[O-])cc1`, the melting point was in the range of 77 to 78 °C. As for `Oc1nn(-c2ccccc2)cc1Cc1ccccc1`, the figure is 185 to 186 °C; as for `NC(=O)c1c(-c2ccccc2)csc1O`, 108 to 110 °C; as for `CC(=O)N[C@H](CC(N)=O)C(=O)Nc1ccc(-c2ccc(C(=O)O)c(=O)[nH]2)cc1`, 265 to 266 °C. The result for `CC1(C)C=C(N2CCCC2=O)c2cc([N+](=O)[O-])ccc2O1` reads 135 to 137 °C. In the case of `O=C(O)c1ccc(OCCCOCCCCCCBr)cc1`, the melting point lay within 72 to 75 °C. As for `CSC(=C[N+](=O)[O-])Nc1ccc(Cl)nc1`, the figure is 169 to 171 °C; as for `COC(=O)C(NC(=O)N1C2CCC(C2)N1CC(O)C(Cc1ccccc1)NC(=O)C(NOCc1ccccn1)C(C)C)C(C)C` (mixture of isomers), 79 to 84 °C. The result for `Cc1ccc2c(c1)c(=O)oc(=O)n2Cc1ccccc1` reads 150 °C; that for `Cc1ccc(CCCNCC(O)c2cc3ccccc3o2)cc1` (stereo not given), 118 to 119 °C; that for `Cn1nc(C(F)(F)F)n(-c2ccc(F)cc2)c1=S`, 94 to 96 °C. As for `O=C=Nc1ccc2c(c1)C(=O)CC2`, the figure is 72 °C; as for `COC(=O)c1ccc(CC2=CCc3ccc(NC(=O)CC4CCCC4)cc32)c(OC)c1`, 178 to 179 °C; as for `CC(C)(C)OC(=O)c1ccc(C#Cc2cnc3nc(N)nc(O)c3c2)cc1`, more than 260 °C.

In turn, `COc1cc2c(cc1O)CCN(Cc1cccnc1)C2` had a melting point of 165 to 166 °C. The result for `CC(C)CCn1cn[nH]c1=O` reads 78 to 79 °C; that for `CC(NC(=O)c1cc(Cl)ccc1NC(=O)c1cc(Br)nn1-c1ncccc1Cl)C1CC1` (stereo not given), 231 to 233 °C. The result for `O=C(N[C@H]1CC[C@H](CCN2CCC(c3cccc4c3CCO4)CC2)CC1)c1ccc2c(c1)OCO2` reads 233 °C. The result for `Cc1ccc2c(n1)NC(C)C(=O)N2` (racemic) reads 203 to 205 °C. Turning to `CC(C)(C)OC(=O)CN(C(=O)CN1C(=O)c2ccccc2C1=O)c1ccccc1`, the melting point worked out at 126 °C. Take `Cc1nnc(CCl)n1-c1ccc(Cl)cc1C(=O)c1ccccc1Cl`: the melting point fell in the range of 127 to 130 °C.

As for `CCOC(=O)c1cc(CC)sc1Nc1cc(C)ccc1[N+](=O)[O-]`, the melting point was in the range of 55 to 57 °C. As for `O=C(O)c1cc(F)c(F)c(OC(F)F)c1F`, the figure is 68 to 70 °C; as for `CC1(O)CCC2(C)C(CCC3C2CCC2(C)C(c4cc(CO)no4)CCC32)C1` (stereo not given), 192 to 193 °C. `O=[N+]([O-])c1cccc2cncc(Br)c12` had a melting point of 172 to 174 °C. Regarding `Nc1nc(=O)n(C(=O)Oc2ccccc2)cc1F`, the melting point is 175 to 180 °C. The result for `CCc1ccc2oc3cc(C#N)cnc3c(=O)c2c1` reads 183 to 185 °C; that for `CC(=O)OC1CSC(Oc2ccc(-c3ccco3)nc2)C(OC(C)=O)C1OC(C)=O` (stereo not given), 133 °C; that for `COc1cccc(COc2ccc(S(=O)(=O)c3ccc(C)nc3Nc3c(C)cc(C)cc3C)cc2)c1`, 124 to 126 °C. As for `O=C1c2ccncc2C(=O)c2c(F)ccc(O)c21`, the figure is 189 to 192 °C; as for `CN1CCN(S(=O)(=O)c2ccc(Br)s2)CC1`, 122 °C; as for `CCOCCOC(=O)C(=O)Nc1nc(-c2ccccc2)cs1`, 109 to 110 °C. As for `COc1cccc(CC(NC(C)=O)C(=O)O)c1OCc1ccccc1` (racemic), the figure is 169 to 170 °C; as for `N#CC1Sc2ccccc2-c2ccccc21` (stereo not given), 114 to 116 °C. Molecule `COc1ccc(C=Cc2ccc(C#N)cc2)cc1` registered a melting point of 146 to 148 °C. The result for `N#Cc1c(Cc2ccccc2)nn(C2CCCC2)c1N` reads 180 to 182 °C. The result for `CC1(C)OC(=S)Nc2ccc(-c3cc(C#N)ccc3F)cc21` reads 250 to 251 °C; that for `CC1(C)OC(c2cccc(S(C)(=O)=O)c2)=C(c2ccccc2)C1=O`, 190 to 191 °C. As for `Cc1cnc2ccnn2c1-c1cccc(C(F)(F)F)c1`, the figure is 168 to 169 °C; as for `O=C(Nc1cccc(-n2ccnc2)c1)c1csc(-c2ccccc2)n1`, 131 to 134 °C; as for `O=C(COc1ccc(OCc2ccccc2)cc1)NCCCn1ccnc1`, 112 to 113 °C. `N=C(Nc1ccc2ccncc2c1)c1cccs1` showed a melting point of 178 °C. The result for `CCOC(=O)C(Sc1nc2cc(Cl)ccc2s1)c1ccccc1` (stereo not given) reads 62 to 64 °C; that for `CC#CCOc1ccc(S(=O)(=O)C(C(=O)O)C2CCN(C(=O)c3ccccc3)CC2)cc1` (stereo not given), 90 °C; that for `Cc1ccccc1-c1nc2ccc(O)cc2o1`, 134 to 138 °C. The result for `Cn1nc(C(F)(F)F)cc1-c1ccc(F)cc1F` reads 37 to 38 °C. Take `CC(=O)OC1CSC(Oc2ccc(-c3cccs3)nc2)C(OC(C)=O)C1OC(C)=O` (stereo not given): the melting point came to 172 °C.

Turning to `Nc1cnc(Oc2ccc(Cl)c3c2CCCC3)c(Cl)c1`, the melting point lay within 130 to 132 °C. The result for `CS(=O)(=O)c1ccc(-n2nc(C(F)(F)F)cc2-c2ccc(-c3ccsc3)cc2)cc1F` reads 72 to 74 °C; that for `COc1ccccc1-n1cnc2c(C(N)=O)nc(-c3ccccc3O)nc21`, 278 to 280 °C; that for `CC(=O)N1CCC(c2n[nH]c3cc(Cl)ccc23)CC1`, 172 to 174 °C. Consider `COC(=O)c1cccc2c(Cl)c(OC)ccc12`, for which the melting point is 125 °C. The result for `COc1ccc(N(CCCC(=O)N(CCCC(=O)O)c2c(C)cccc2C)C(=O)c2ccc(Cl)cc2)cc1` reads 131 to 133 °C; that for `Cc1ccc(-c2cc(CCCO)nn2-c2ccc(S(N)(=O)=O)cc2)cc1`, 123 to 126 °C; that for `CCCC(=O)c1cccc(NC(=O)C=C(C)OC)c1`, 81 °C.

With `CCOC1(OCC)OC(C)=C(C(=O)OC)[C@@H](NC(C)=O)[C@@H]1C` (relative stereo), the melting point was 87 to 88 °C. As for `O=c1[nH]c2ccccc2n1CCNCc1ccc(CN2CCCCC2)o1`, the figure is 83 to 85 °C; as for `CCCc1cn(C(CC)C(=O)N(C)C)nc1-c1ccccc1` (stereo not given), 63 to 65.5 °C. Molecule `Cc1nc2c(CCCc3ccccc3)cccn2c1CC#N` showed a melting point of 66.5 to 68 °C. The result for `CC1(C)Oc2ccc(C#N)cc2C(n2ccc(O)cc2=O)C1O` (stereo not given) reads 248 to 250 °C; that for `CC(C)[C@]1(CCc2ccccc2)CC(O)=C(Sc2cc3sc(N)nc3cc2C(C)(C)C)C(=O)O1`, 186 to 188 °C; that for `CC(c1ccc(C(=O)N(C)C2CCCCC2)cc1)n1cnc2ccccc21` (stereo not given), 142 to 145 °C.

In the case of `N#Cc1cccc(C2=NOC3(C2)OC(=O)c2ccccc23)c1` (stereo not given), the melting point lay within 134 to 137 °C.

`COc1c(C)c(C)c2c(c1C)C(c1ccc(CCCCCCC(=O)O)cc1)C(C)(C)O2` (stereo not given) displayed a melting point of 88 to 89 °C. As for `CC1CC=NN1C(=O)c1cccnc1` (single isomer, unassigned; (-)), the figure is 67 to 69 °C; as for `CCCc1c(OCCOc2ccc([N+](=O)[O-])cc2)ccc(C(C)=O)c1O`, 124 to 125 °C. As for `CC(=Cc1ccc(S)cc1)c1ccc2c(c1)C(C)(C)CCC2(C)C`, the figure is 97 to 98 °C. `CC(=O)NCC1CC(c2ccc(-n3ccnc3)c(F)c2)=NO1` (stereo not given) yielded a melting point of 155 to 156 °C.

For `CCCN1CCc2c(cccc2NC(=O)c2ccc(OC)cc2)C1`, the melting point is 162 to 164 °C. As for `COC(=O)c1ccc(N2CCC(N(C)Cc3ccccc3)CC2)cc1`, the figure is 103 to 104 °C; as for `O=C(O)c1ccccc1Sc1ccccc1[N+](=O)[O-]`, 169 to 171 °C; as for `CC(C)(C)OC(=O)Nc1cc(OCc2ccccc2)c2ncccc2c1I`, 118 to 119 °C. The result for `COc1ccc(C(=O)CCCCCl)cc1S(=O)(=O)Cl` reads 69 to 70 °C; that for `CSc1nc2c(Cl)ccc(-n3c(=O)cc(C(F)(F)F)n(C)c3=O)c2s1`, 79 to 81 °C. The result for `O=S(CCCCOc1ccc(C2=C(c3ccccc3)CCCc3cc(O)ccc32)cc1)Cc1ccccn1` (stereo not given) reads 162 °C. For `NC(=O)[C@H]1CCc2c(sc3nc(CN4C(=O)COC4=O)c(Cl)c(-c4ccc(O)cc4)c23)C1`, the melting point is 317 to 318 °C.

Turning to `COc1ccc(/C=C/c2cc(/C=C/c3ccc4cc[nH]c4c3)n[nH]2)cc1OCc1ccccn1`, the melting point lay within 110 to 117 °C.

`COc1ccc(C(C)(C)C)c(O)c1-c1nc2cc(S(=O)(=O)C(F)(F)F)ccc2[nH]1`: the melting point is 55 to 56 °C. As for `CC1(C)C(=O)NC(=O)c2c1ccc(N)c2[N+](=O)[O-]`, the figure is 259 to 263 °C; as for `CCOC(=O)Cn1c(=O)c2cc(Cl)ccc2n(Cc2ccc(Br)cc2F)c1=O`, 145 to 146 °C; as for `CCOC(=O)c1ccc(NCCc2cccs2)cc1`, 93 to 96 °C. Take `CC(=O)N1N=C(c2ccc([N+](=O)[O-])cc2)c2cc3c(cc2CC1C)OCO3` (stereo not given): the melting point is 140 to 142 °C. In the case of `CCC(Oc1cccc(C)c1C)C(=O)OC1CC(O)C=C2C=CC(C)C(CCC3CC(O)CC(=O)O3)C21` (mixture of isomers), the melting point fell in the range of 148 to 150 °C. As for `CONC(=O)CC1=C(C)/C(=C/c2ccc(S(C)=O)cc2)c2ccc(F)cc21` (stereo not given), the figure is 177 to 179 °C. `Fc1cc(F)c(-c2c(Cl)nc3nc(SCc4ccccc4)nn3c2Cl)c(F)c1` yielded a melting point of 106 °C.

With `O=C(O)C(=O)NC1N=C2C(=Cc3ccccc32)S1` (stereo not given), the melting point lay within 229 to 231 °C.

`COc1cc2c(cc1C(F)(F)F)N(C(=O)Nc1cc(F)cc(I)c1)CC2` came in with a melting point of 221 to 224 °C. The result for `CC(C)CC(NC(=O)N1CCc2cc(S(=O)(=O)N3CCN(c4cccc(Cl)c4)CC3)ccc21)C(=O)O` (stereo not given) reads 138 to 140 °C; that for `CC1CCN(C(=O)Oc2ccccc2-c2ccccc2)CC1`, 85 to 86 °C; that for `Cn1c(=O)c2c(N)ccnc2n(C)c1=O`, 233 to 235 °C.
